Data taken from US11103454B2, “Wax foamable vehicle and pharmaceutical compositions thereof” (VYNE THERAPEUTICS INC., priority 2007, dated 2021).

From the text: In one or more embodiments, the foamable composition includes a potent solvent, in addition to or in place of one of the hydrophobic solvents, polar solvents or emollients of the composition. A potent solvent is a solvent other than mineral oil that solubilizes a specific active agent substantially better than a hydrocarbon solvent such as mineral oil or petrolatum.

Structure (SMILES) | Solubility in glycofurol | Solubility in mineral oil | Solubility in dimethyl isosorbide | Solubility in propylene glycol | Solubility in polyethylene glycol 400 (PEG 400) | Solubility in isostearic acid
CCCCC(=O)O[C@]1(C(=O)CO)[C@@H](C)C[C@H]2[C@@H]3CCC4=CC(=O)C=C[C@]4(C)[C@@]3(F)[C@@H](O)C[C@@]21C [Betamethasone valerate] | more than 1% | < 0.01% | – | – | – | –
CCCC(=O)O[C@]1(C(=O)CO)CC[C@H]2[C@@H]3CCC4=CC(=O)CC[C@]4(C)[C@H]3[C@@H](O)C[C@@]21C [Hydrocortisone butyrate] | more than 1% | < 0.01% | – | – | – | –
CC(=O)N1CCN(c2ccc(OCC3COC(Cn4ccnc4)(c4ccc(Cl)cc4Cl)O3)cc2)CC1 (stereo not drawn) [Ketoconazole] | more than 1% | < 0.01% | more than 1% | more than 1% | – | –
Cc1cnc(NC(=O)C2=C(O)c3ccccc3S(=O)(=O)N2C)s1 [Meloxicam] | – | < 0.001% | – | – | – | –
Cc1ncc([N+](=O)[O-])n1CCO [Metronidazole] | – | < 0.01% | more than 1% | – | – | –
C/C(=C\C(=O)OCCCCCCCCC(=O)O)C[C@@H]1OC[C@H](C[C@@H]2O[C@H]2[C@@H](C)[C@H](C)O)[C@@H](O)[C@H]1O [Mupirocin] | more than 1% | < 0.01% | more than 1% | more than 1% | more than 1% | –
CC(=O)[C@H]1CC[C@H]2[C@@H]3CCC4=CC(=O)CC[C@]4(C)[C@H]3CC[C@]12C [Progesterone] | – | < 0.001% | – | – | – | –
CC(C)Cn1cnc2c(N)nc3ccccc3c21 [imiquimod, 4-Amino-1-isobutyl-1H-imidazo[4,5-c] quinoline] | – | – | – | – | – | soluble
